The values that follow come from publication PMC12136037, “Type II kinase inhibitors that target Parkinson’s disease–associated LRRK2” (Science Advances, 2025).

Like-named read-outs stand apart in the source and are kept apart here.

Common to all, as to assay: DSF 100 kinase selectivity screen;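 further: compound tested at 20 µM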
What all share (format): binding

For test [1], the target named is T1, ~100 representative kinases (Homo sapiens, UniProt O15264).
T1 construct: Recombinant protein kinase domains with a concentration of 2 μM
T1 sequence (O15264 1-365): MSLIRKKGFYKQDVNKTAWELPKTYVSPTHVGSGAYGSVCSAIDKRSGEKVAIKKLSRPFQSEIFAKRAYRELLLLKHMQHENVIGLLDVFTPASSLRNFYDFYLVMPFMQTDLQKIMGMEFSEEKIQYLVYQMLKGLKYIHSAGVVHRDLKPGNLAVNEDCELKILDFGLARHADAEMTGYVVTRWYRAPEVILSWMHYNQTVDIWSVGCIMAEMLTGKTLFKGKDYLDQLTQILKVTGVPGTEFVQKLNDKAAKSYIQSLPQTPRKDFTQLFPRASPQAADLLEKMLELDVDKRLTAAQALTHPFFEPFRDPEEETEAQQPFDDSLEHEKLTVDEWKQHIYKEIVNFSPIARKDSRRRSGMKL
As to conditions: protein MAPK13; average of three replicates. The method, boiled down:
(§1)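 Each kinase domain, at 2 μM, is mixed with 20 μM test compound and SYPRO Orange in Hepes (20 mM, pH 7.5) with 500 mM NaCl. Temperature is then raised at 3°C/min and fluorescence-monitored unfolding yields the melting temperature change, ΔTm in degrees Celsius.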

The target in test [2] is T2, ~100 representative kinases (Homo sapiens, UniProt P45983).
T2 construct: Recombinant protein kinase domains with a concentration of 2 μM
T2 sequence (P45983 whole entry, the tested form may be a part): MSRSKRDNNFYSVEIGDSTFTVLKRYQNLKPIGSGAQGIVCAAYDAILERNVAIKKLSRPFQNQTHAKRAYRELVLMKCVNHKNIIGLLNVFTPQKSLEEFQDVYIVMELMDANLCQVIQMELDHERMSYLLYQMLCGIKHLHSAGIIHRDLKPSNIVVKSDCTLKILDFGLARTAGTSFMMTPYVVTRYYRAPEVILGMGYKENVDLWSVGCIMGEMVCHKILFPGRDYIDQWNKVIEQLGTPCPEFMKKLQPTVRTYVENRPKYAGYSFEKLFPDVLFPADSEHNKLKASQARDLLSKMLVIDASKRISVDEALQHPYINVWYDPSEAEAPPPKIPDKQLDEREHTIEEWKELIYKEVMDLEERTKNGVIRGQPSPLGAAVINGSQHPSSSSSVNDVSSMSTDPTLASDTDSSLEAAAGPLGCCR
As to conditions: protein MAPK8; average of three replicates. The method, boiled down:
as §1

Test [3] addresses T3, ~100 representative kinases (Homo sapiens, UniProt Q13153).
T3 construct: Recombinant protein kinase domains with a concentration of 2 μM
As to conditions: protein PAK1; average of three replicates. The essentials:
as §1

The target of test [4] is T4, ~100 representative kinases (Homo sapiens, UniProt Q13188).
T4 construct: Recombinant protein kinase domains with a concentration of 2 μM
T4 sequence (Q13188 1-491): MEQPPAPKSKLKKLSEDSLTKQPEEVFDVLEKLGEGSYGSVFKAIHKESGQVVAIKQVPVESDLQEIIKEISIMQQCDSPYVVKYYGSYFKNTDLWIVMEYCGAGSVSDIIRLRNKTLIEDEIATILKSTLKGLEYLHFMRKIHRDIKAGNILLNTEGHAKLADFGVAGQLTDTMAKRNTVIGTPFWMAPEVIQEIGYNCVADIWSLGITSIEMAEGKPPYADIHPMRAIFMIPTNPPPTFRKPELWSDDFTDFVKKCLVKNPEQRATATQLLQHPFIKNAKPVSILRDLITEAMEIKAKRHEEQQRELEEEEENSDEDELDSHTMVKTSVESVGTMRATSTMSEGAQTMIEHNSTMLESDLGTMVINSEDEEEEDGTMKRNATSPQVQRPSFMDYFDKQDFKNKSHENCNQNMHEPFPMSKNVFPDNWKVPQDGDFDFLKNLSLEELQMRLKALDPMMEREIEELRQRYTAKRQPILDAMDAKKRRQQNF
As to conditions: Protein STK3; DSF; average of three replicates. The essentials:
as §1

Test [5] has as its target T5, ~100 representative kinases (Homo sapiens, UniProt Q16539).
T5 construct: Recombinant protein kinase domains with a concentration of 2 μM
The essentials:
as §1

In test [6] the target is T6, ~100 representative kinases (Homo sapiens, UniProt Q8IU85).
T6 construct: Recombinant protein kinase domains with a concentration of 2 μM
T6 sequence (Q8IU85 whole entry, the tested form may be a part): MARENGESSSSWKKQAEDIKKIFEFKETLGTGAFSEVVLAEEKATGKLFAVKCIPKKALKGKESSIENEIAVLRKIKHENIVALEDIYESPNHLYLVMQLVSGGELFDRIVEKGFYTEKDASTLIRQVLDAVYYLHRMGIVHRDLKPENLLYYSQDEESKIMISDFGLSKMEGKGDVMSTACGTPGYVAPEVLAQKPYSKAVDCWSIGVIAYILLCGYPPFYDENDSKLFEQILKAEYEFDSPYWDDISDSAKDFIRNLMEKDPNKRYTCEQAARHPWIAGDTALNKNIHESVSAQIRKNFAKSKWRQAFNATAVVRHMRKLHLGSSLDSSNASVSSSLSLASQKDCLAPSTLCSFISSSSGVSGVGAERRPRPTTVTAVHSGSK
As to conditions: Protein CAMK1D; average of three replicates. The essentials:
as §1

The target in test [7] is T7, ~100 representative kinases (Homo sapiens, UniProt Q96PY6).
T7 construct: Recombinant protein kinase domains with a concentration of 2 μM
T7 sequence (Q96PY6 1-1258): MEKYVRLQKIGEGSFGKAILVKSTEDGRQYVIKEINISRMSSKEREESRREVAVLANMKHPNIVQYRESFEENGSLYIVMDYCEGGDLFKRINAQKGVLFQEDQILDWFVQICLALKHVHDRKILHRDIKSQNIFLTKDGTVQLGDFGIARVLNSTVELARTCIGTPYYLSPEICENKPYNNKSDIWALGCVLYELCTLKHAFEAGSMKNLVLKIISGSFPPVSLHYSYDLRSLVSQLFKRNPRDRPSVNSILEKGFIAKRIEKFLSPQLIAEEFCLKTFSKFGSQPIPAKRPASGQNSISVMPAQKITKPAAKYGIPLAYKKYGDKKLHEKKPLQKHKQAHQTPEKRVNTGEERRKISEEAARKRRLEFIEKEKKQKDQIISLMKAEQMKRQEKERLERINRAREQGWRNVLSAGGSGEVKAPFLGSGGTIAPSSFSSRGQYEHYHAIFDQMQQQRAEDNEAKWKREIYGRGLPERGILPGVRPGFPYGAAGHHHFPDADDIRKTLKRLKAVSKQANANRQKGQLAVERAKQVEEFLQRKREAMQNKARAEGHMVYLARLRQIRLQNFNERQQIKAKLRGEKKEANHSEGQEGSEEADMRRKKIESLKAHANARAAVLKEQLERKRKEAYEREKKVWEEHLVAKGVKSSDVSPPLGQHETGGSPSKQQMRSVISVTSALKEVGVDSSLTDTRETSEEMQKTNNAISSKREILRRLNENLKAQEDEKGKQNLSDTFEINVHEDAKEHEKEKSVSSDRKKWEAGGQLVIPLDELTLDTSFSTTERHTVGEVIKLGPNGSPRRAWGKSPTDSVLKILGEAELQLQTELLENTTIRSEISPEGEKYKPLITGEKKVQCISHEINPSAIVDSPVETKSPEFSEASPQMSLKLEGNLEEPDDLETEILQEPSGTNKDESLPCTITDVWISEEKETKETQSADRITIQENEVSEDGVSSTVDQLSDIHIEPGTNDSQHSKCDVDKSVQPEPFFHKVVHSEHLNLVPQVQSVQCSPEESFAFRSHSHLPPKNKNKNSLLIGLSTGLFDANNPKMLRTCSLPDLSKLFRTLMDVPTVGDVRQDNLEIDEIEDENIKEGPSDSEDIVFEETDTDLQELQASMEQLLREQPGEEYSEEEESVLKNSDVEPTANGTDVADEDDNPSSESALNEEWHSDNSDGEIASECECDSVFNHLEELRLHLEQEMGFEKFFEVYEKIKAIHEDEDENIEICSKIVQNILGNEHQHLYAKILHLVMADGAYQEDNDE
As to conditions: protein NEK1; average of three replicates. The method, boiled down: as §1

The target of test [8] is T8, ~100 representative kinases (Homo sapiens, UniProt Q9H4A3).
T8 construct: Recombinant protein kinase domains with a concentration of 2 μM
T8 sequence (Q9H4A3 whole entry, the tested form may be a part): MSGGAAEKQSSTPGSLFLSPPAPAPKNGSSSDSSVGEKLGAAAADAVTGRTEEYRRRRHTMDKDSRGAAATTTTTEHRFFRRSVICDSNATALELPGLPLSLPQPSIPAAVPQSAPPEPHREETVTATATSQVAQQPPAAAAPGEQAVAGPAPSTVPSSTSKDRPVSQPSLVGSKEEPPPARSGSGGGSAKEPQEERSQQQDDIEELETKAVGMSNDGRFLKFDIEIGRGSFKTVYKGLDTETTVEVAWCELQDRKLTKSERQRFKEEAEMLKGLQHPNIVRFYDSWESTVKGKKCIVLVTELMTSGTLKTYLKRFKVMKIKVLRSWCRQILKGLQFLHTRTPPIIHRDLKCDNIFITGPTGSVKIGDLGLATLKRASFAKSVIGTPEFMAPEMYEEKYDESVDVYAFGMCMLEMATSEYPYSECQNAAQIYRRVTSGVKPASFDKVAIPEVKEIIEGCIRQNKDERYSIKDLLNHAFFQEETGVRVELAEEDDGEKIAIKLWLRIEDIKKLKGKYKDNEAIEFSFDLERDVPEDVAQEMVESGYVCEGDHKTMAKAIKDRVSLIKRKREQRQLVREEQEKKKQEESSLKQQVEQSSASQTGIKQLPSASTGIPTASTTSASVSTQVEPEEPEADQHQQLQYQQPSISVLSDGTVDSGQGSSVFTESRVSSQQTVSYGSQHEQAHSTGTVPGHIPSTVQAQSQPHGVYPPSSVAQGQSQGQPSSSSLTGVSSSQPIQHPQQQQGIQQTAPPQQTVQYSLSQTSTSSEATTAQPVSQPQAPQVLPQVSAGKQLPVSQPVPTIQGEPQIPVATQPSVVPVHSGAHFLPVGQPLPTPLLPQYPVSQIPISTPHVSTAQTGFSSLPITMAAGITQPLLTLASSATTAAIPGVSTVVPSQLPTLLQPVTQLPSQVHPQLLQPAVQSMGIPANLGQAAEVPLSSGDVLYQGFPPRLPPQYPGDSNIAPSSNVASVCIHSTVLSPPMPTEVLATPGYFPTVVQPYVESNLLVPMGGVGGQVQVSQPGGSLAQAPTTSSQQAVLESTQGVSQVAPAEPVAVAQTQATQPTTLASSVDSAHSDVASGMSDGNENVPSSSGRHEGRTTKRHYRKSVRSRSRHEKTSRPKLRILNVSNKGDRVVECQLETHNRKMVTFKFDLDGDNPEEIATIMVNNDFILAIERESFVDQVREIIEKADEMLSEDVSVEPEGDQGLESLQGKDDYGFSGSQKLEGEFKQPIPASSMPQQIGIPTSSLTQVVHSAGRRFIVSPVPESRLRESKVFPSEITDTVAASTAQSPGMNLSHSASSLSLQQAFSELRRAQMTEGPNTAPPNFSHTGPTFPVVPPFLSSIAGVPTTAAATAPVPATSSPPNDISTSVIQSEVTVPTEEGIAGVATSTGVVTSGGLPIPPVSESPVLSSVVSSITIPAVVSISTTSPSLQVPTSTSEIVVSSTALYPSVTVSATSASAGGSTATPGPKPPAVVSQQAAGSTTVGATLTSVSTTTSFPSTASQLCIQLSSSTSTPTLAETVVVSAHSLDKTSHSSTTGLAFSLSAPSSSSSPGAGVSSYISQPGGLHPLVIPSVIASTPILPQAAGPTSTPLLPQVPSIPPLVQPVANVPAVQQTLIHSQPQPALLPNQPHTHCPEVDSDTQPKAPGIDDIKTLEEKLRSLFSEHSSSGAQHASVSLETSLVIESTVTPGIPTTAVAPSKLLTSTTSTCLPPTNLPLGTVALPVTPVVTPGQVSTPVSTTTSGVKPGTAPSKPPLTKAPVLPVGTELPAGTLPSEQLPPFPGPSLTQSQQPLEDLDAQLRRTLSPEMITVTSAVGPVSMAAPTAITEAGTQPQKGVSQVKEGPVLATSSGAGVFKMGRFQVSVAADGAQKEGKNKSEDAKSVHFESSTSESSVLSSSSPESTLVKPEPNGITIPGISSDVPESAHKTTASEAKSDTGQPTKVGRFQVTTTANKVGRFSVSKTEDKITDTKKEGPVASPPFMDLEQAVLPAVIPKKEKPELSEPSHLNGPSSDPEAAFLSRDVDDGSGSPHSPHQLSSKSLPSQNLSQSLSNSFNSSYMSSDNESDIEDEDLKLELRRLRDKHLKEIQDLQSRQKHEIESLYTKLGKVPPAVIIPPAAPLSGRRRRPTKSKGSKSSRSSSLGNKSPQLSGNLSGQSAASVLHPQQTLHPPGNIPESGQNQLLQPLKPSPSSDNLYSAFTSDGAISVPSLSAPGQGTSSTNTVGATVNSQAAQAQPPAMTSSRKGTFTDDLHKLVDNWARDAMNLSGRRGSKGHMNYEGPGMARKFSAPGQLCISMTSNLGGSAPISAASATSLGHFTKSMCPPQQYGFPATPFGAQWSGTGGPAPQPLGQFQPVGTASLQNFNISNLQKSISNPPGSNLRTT
The following applies: Protein WNK1; DSF; average of three replicates. The method, boiled down:
as §1

Test [9] concerns the target T9, ~100 representative kinases (Homo sapiens, UniProt Q9P289).
T9 construct: Recombinant protein kinase domains with a concentration of 2 μM
The following applies: protein MST4; average of three replicates. The method, boiled down: as §1

Test [10] deals with T10, ~100 representative kinases (Homo sapiens, UniProt Q9UEW8).
T10 construct: Recombinant protein kinase domains with a concentration of 2 μM
As to conditions: Protein STK39; DSF; average of three replicates. The method, boiled down:
as §1

[11] abbreviates: protein MAPK14, average of three replicates.

T3 sequence (Q13153 whole entry, the tested form may be a part): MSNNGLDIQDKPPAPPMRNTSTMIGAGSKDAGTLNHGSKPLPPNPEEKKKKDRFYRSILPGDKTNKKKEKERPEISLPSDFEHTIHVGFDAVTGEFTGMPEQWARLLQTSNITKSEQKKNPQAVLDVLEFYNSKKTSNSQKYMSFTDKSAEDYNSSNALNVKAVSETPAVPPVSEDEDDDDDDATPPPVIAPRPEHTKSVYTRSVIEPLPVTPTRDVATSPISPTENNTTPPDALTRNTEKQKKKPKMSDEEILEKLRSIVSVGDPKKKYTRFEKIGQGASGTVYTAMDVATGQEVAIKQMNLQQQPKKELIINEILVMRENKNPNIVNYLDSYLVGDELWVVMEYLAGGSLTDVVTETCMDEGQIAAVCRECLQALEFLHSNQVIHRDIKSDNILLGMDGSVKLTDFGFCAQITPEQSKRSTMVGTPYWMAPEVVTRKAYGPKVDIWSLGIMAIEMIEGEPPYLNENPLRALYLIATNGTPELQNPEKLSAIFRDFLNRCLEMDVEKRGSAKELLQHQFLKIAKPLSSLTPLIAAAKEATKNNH
T9 sequence (Q9P289 whole entry, the tested form may be a part): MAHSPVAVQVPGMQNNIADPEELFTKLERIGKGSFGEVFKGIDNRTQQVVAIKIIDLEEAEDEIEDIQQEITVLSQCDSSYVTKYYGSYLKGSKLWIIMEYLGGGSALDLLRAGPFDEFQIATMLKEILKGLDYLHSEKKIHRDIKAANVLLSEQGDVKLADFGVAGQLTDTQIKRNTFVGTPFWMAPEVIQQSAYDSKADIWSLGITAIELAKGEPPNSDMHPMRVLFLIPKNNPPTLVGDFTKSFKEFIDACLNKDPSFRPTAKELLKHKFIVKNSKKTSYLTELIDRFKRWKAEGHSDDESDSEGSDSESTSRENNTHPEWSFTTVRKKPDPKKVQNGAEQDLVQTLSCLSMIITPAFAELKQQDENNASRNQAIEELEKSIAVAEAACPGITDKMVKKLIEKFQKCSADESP
T5 sequence (Q16539 whole entry, the tested form may be a part): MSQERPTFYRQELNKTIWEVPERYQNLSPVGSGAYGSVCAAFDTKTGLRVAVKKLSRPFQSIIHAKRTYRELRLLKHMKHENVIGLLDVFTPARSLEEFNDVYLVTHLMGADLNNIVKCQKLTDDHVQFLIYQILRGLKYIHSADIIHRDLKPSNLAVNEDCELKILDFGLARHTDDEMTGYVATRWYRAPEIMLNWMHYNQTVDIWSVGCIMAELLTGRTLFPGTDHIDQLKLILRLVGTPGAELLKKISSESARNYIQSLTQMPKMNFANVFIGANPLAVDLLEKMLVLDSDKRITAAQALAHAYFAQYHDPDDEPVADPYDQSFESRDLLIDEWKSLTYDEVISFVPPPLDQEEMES

For the compound `COc1cc2c(Oc3ccc(NC(=O)C4(C(=O)Nc5ccc(F)cc5)CC4)cc3F)ccnc2cc1OCCCN1CCOCC1` [Foretinib, reference compound], the dTm in test [1] is recorded as 9.64 K; in [2], 2.68 K; in [3], 1.69 K; in [4], 8.88 K; in test [5], 6.85 K; in [6], 0.45 K. In addition, the dTm is given as 0.60 K in test [7], 1.01 K in test [8], 3.65 K in test [9] and 0.70 K in [10].

Take `CCNc1nc(Nc2cc(F)c(C(=O)N3CCOCC3)cc2OC)ncc1C(F)(F)F` [GNE-7915]: the dTm in test [1] was 0.51 K; in [2] it was 0.60 K; in test [3], -0.11 K; in [4], 0.97 K; in [5] (setting [11]), 0.16 K; in test [6], -0.16 K. The dTm is recorded as 0.68 K in [7], -0.0645 K in test [8], 0.65 K in test [9] and 0.28 K in test [10].

For the compound `Cc1ccc(C(=O)Nc2ccc(CN3CCN(C)CC3)c(C(F)(F)F)c2)cc1C#Cc1cnc2[nH]ncc2c1` [GZD-824, reference compound], the dTm in [1] is reported as 6.08 K; in test [2], 4.08 K; in test [3], 4.19 K; in [4] it was 7.78 K; in [5], 17.66 K; in test [6], -0.60 K. The dTm in test [7] was 1.45 K; in test [8], 0.53 K; in test [9] it was 8.85 K; in test [10], 4.29 K.

`C[C@@H]1CN(c2cc(-c3n[nH]c4ccc(OC5(C)CC5)cc34)ncn2)C[C@H](C)O1` [MLi2]: the dTm in [1] is 0.32 K; in [2] it was 0.56 K; in [3], -0.13 K; in [4] it was 0.09 K; in test [5] (setting [11]), 0.038 K; in test [6], 2.16 K. The dTm in [7] is 0.27 K; in [8], 0.19 K; in test [9] it was -0.41 K; in [10], 0.27 K.

For `Cn1cc(-c2c[nH]c3ncnc(N4CCOCC4)c23)cc1C#N` [PFE-360], the dTm is listed as 0.70 K in test [1]; 0.89 K in test [2]; -0.19 K in test [3]; 6.99 K in [4]; 0.53 K in test [5] (setting [11]); -1.69 K in test [6]. Besides, the dTm in [7] is on record as 0.39 K; in test [8], 0.08 K; in test [9], 1.97 K; in test [10] it was -0.25 K.
